Assay results from patent US20040038855A1 (priority 1999, published 2004).
Structures can show the parent of a compound that is named as a salt. Where two headings read alike, the source gives them in different places.

What was measured:
[1] = target: T1, human Histamine H1 receptor (Homo sapiens, UniProt P35367); experiment: Binding affinity at the human histamine H1 receptor
T1 construct: expressed in transfected cells
In short: (§1)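 Receptor binding read-out throughout; membranes expressing human D1 or D2 receptor were used for those two targets.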

[2] = target: T2, human Alpha-1a Adrenergic receptor (Homo sapiens, UniProt P35348); experiment: Binding affinity at the human alpha-1A adrenergic receptor
T2 construct: expressed in transfected cells
T2 sequence (P35348 1-466): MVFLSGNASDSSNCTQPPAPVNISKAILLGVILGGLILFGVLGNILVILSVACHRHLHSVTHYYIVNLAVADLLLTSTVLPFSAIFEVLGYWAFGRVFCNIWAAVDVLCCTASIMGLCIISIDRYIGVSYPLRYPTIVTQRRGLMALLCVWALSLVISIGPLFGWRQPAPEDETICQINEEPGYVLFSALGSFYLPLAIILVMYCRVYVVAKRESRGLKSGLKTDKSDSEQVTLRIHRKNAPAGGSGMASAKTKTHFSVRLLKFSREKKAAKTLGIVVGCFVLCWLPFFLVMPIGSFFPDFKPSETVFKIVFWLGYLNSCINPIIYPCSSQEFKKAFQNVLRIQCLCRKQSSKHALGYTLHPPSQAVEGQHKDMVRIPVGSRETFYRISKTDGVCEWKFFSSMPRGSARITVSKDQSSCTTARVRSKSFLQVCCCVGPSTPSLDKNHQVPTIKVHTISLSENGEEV
In short: as §1

[3] = target: T3, human α1B adrenoceptor (Homo sapiens, UniProt P35368); experiment: Binding affinity at the human α1B adrenergic receptor; details: Table 3d; read-out: hα1B Ki
T3 construct: expressed in transfected cells
T3 sequence (P35368 1-520): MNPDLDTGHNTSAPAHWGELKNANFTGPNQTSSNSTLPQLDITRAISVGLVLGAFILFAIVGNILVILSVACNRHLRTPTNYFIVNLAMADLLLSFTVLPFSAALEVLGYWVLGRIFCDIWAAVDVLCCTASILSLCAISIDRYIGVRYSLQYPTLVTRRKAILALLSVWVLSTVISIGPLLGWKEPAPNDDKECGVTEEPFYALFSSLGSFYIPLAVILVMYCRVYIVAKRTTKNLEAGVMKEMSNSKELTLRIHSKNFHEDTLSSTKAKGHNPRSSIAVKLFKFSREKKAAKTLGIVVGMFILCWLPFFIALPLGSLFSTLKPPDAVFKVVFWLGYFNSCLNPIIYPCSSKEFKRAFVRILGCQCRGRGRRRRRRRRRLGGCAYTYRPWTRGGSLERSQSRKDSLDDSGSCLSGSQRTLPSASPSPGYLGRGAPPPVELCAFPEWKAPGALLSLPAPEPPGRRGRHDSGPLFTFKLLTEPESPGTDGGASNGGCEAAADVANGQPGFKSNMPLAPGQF
From the text: (§2) Other receptors: Cell membranes expressing human dopamine D1, D2, D4 and rat D3 receptors were purchased through BioSignal, Inc. (Montreal, Canada). Binding assays using the histamine H1 receptor; dopamine receptors; and α1A, α1B, and α2 adrenergic receptors may be carried out according to the procedures described in U.S. Pat. No. 5,780,485, the disclosure of which is hereby incorporated by reference in its entirety into this application. Binding assays using the dopamine D5 receptor may be carried out according to the procedures described in U.S. Pat. No. 5,882,855, the disclosure of which is hereby incorporated by reference in its entirety into this application. Binding assays for the human α1D adrenergic receptor may be carried out according to the procedures described in U.S. Pat. No. 6,156,518, the disclosure of which is hereby incorporated by reference in its entirety into this application.

[4] = target: T4, human α2B adrenoceptor (Homo sapiens, UniProt P18089); experiment: Binding affinity at the human α2B adrenergic receptor
T4 construct: expressed in transfected cells
T4 sequence (P18089 1-450): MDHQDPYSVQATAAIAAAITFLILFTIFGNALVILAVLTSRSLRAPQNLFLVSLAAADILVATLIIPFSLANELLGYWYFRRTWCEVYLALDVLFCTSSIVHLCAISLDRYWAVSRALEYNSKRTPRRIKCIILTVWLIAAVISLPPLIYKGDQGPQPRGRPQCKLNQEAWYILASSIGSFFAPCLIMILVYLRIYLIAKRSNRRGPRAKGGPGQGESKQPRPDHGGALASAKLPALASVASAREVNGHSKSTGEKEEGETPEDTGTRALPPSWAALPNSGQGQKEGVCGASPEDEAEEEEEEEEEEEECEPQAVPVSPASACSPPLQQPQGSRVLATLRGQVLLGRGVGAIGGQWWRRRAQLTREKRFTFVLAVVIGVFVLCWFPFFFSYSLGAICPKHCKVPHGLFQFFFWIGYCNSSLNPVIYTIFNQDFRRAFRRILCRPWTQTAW
From the text: as §2

[5] = target: T5, human 5HT1A receptor (Homo sapiens, UniProt P08908); experiment: Binding affinity at the human 5HT1A receptor (3H8OHDPAT); details: Table 3e; read-out: h5HT1A Ki
T5 construct: The cDNA corresponding to the 5HT1A receptor open reading frames and variable noncoding 5′ and 3′regions; expressed in transfected cells; host or cells: COS7 cells, transient, DEAE-dextran, vector pCEXV3
T5 sequence (P08908 1-422): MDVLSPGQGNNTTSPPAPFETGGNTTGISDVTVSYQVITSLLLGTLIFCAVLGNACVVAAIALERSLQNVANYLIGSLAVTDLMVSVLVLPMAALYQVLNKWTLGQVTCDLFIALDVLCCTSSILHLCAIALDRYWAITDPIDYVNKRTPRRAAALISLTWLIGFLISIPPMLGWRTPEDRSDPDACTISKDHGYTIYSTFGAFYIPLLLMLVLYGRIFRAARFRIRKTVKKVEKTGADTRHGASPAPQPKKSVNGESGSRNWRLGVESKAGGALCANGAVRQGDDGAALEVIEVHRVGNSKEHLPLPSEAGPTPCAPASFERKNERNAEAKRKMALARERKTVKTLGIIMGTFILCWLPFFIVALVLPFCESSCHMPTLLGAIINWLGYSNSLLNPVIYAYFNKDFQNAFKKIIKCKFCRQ
Procedure: 5HT1A Receptor: The cDNA corresponding to the 5HT1A receptor open reading frames and variable noncoding 5′ and 3′regions, was cloned into the eukaryotic expression vector pCEXV3. These constructs were transfected transiently into COS7 cells by the DEAEdextran method (Cullen, 1987), and harvested after 72 hours. Radioligand binding assays were performed as described above for the 5HT2A receptor, except that ^3H8OHDPAT was used as the radioligand and nonspecific binding was determined by the addition of 10 μM mianserin.

T1 sequence (P35367 whole entry): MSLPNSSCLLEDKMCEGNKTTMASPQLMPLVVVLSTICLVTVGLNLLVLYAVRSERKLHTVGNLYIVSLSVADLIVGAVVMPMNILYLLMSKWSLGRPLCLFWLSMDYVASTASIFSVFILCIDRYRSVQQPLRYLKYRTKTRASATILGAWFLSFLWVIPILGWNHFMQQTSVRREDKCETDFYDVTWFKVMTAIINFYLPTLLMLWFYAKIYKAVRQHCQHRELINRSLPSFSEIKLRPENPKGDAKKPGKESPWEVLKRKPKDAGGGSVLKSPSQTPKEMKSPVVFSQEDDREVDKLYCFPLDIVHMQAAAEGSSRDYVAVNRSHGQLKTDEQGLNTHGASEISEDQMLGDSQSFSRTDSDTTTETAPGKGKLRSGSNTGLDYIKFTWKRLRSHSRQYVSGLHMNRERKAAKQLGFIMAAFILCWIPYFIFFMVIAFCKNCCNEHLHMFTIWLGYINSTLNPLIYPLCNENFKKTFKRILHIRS

| Compound | Ki ([1]; Table 3e, read-out: hH1 Ki) | Ki ([2]; Table 3d, read-out: hα1A Ki) | Ki [3] | Ki ([4]; Table 3d, read-out: hα2B Ki) | Ki [5] | Ki [1] | Ki [2] | Ki [4] |
| --- | --- | --- | --- | --- | --- | --- | --- | --- |
| 2-(3,4-DIFLUOROPHENYL)4,5-DIHYDROIMIDAZOLE-1-CARBOXYLIC ACID {3-[4-PHENYL-4-(4-BROMO-5-METHYLTHIOPNEN-2-YL)]-PROPYL}-AMIDE [Example 19] | 11 nM | 2.5 nM | 104 nM | 349 nM | 7940 nM |  |  |  |
| COC(=O)C1=C(C)NC(=O)N(C(=O)NCCCN2CCC3(CC2)OCc2ccccc23)C1c1ccc2nonc2c1 (single isomer, unassigned) [Example 18, HYDROCHLORIDE] |  |  | 418 nM |  | 1240 nM | 31 nM | 1.7 nM | 74 nM |
| COCC1=C(C(=O)OC)C(c2ccc(F)c(F)c2)N(C(=O)NCCCN2CCC(c3cccc(NC(C)=O)c3)CC2)C(=O)N1 (single isomer, unassigned; (-)) [Example 1, (−)-1,2,3,6-TETRAHYDRO-1-{N-[4-(3,-ACETAMIDO)-PHENYLPIPERIDIN-1-YL]PROPYL}CARBOXAMIDO-4-METHOXYMETHYL-6-(3,4-DIFLUORO-PHENYL)-2-OXOPYRIMIDINE-5-CARBOXYLIC ACID METHYL ESTER] |  | 2210 nM | 9030 nM |  |  |  |  |  |
| COCC1=C(C(=O)OC)[C@H](c2ccc(F)c(F)c2)N(C(=O)NCCCN2CCC(c3cccc(NC(C)=O)c3)CC2)C(=O)N1 [Example 10, (+)-1,2,3,6-TETRAHYDRO-1-{N-[4-(3,-ACETAMIDO)-PHENYLPIPERIDIN-1-YL]PROPYL}CARBOXAMIDO-4-METHOXYMETHYL-6-(3,4-DIFLUORO-PHENYL)-2-OXOPYRIMIDINE-5-CARBOXYLIC ACID METHYL ESTER] | 4880 nM | 45.8 nM | 11300 nM |  |  |  |  |  |
| COC(=O)C1=C(C)NC(=O)N(C(=O)NCCCN2CCC3(CC2)OCc2ccccc23)C1c1ccc(F)c(F)c1 (stereo not shown) [Example 20, 4-(3,4-DIFLUORPHENYL)-6-METHYL-2-OXO-3-{[3-(4-SPIRO[ISOBENZOFURAN-1(3H),4′-PIPERIDINE]PROPYL}-1,2,3,4-TETRAHYDROPYRIMIDINE-5-CARBOXYLIC ACID METHYL ESTER] |  |  | 407 nM |  | 2190 nM | 39 nM |  | 97 nM |
